Assays:
CT26 tumor = test: Application in cancer therapy: CT26 tumor in BALBc mice; format: in vivo; conditions: i.p.
Method: Female BALBc mice carrying the CT26 tumor type are monitored until tumors are 100-150 mm^3 in volume. Animals are treated via injection i.p. with substances formulated at citrate salts in saline solution. Doses for E 1 are 3, 6 and 12 μmol/kg. At 12 μmol/kg, weight loss of ca. 5% is observed within 24 h. […] In a similar format, Female C57B6 mice carrying the MC38 tumor type co-injected with myofibroblasts (5 fibroblasts: 1 tumor cell-50,000, tumor cells) are monitored until tumors are 100-150 mm^3 in volume. Animals are treated via injection i.p. with either Vehicle or a Rat anti-PD-1 antibody (RMP1-14-CP157) 100 μg, or peritumoral 20 or 50 μg every 96 h. Certain groups receive the antibody alone, or receive in addition, E1 6 μmol/kg or E13 6 μmol/kg, other groups receive E1 and E13 alone at the same dose. Weight loss is similar to the study above and is between 5 and 8% of the starting weight for all treatments. Tumors treated with E1 or E13 alone remain static or decrease in size by up to 30% in size for up to 72 h following treatment. Tumors treated with E1 or E13 in combination with antiPD-1 decline (2 from 8) or are eliminated completely (6 from 8 animals) after the third antibody treatment.

IFNa relative to TNFa = test: Stimulation of cytokines in vivo (plasma cytokines, cytometric bead array); conditions: female C57B6/J mice, i.p., 12 μmol/kg, citrate in saline, EDTA plasma at various times; reference Resiquimod
Method: Female C57B6/J mice ca 18-20g ca. 8 weeks old are treated i.p. with E1 or E13 (citrate in saline) at a dose of12 μmol/kg. The reference substance is Resiquimod. At various times after application blood samples of approximately 25 μl are taken from the tail vein. The resulting EDTA plasma is analysed for cytokines using a cytometric bead array.

Row | SMILES | tumor size following treatment (CT26 tumor; CT26 tumors 100-150 mm^3 at start, doses 3, 6 and 12 μmol/kg, for up to 72 h following treatment) | weight loss (CT26 tumor; female BALBc mice with CT26 tumor, citrate salt in saline, 12 μmol/kg, within 24 h) | secretion of IFNa relative to TNFa (ratio) compared to the reference (IFNa relative to TNFa)
1 | CCCCc1nc2c(N)nc3ccccc3c2n1CC1CCNCC1 [Example E1, 2-butyl-1-(piperidin-4-ylmethyl)-1H-imidazo[4,5-c]quinolin-4-amine] | remain static in size | ca. 5% | higher ratio
2 | CCCCc1nc2c(N)nc3ccccc3c2n1CCC1CCN(C(=O)CN(C)CC(=O)N(C)[C@H]2C[C@@H](C)O[C@@H](C[C@@H]3[C@@H](C)[C@H](O[C@H]4C[C@@](C)(OC)[C@@H](O)[C@H](C)O4)[C@@H](C)C(=O)O[C@H](CC)[C@@](C)(O)[C@H](O)[C@@H](C)N(C)C[C@H](C)C[C@@]3(C)O)[C@@H]2O)CC1 [Example E13] | – | – | higher ratio

Source: patent US20260217702A1, “NOVEL IMIDAZOQUINOLINES WITH IMMUNOSTIMULATORY EFFECTS” (Synovo GmbH, priority 2022, published 2026)
